Drawing on patent publication US20240150368A1, “ULK INHIBITORS AND METHODS OF USE THEREOF” (Deciphera Pharmaceuticals, LLC, priority 2022, published 2024), this text covers IC50 for 44 compounds.

As a reminder, the IC50 is the midpoint of a concentration-inhibition curve.

One assay has as its target T1, ULK1 kinase (Homo sapiens, UniProt O75385, E37A/K38A).
T1 construct: (residues 1-283; ID NO: 1); purchased Beryllium
T1 sequence (O75385 1-283 E37A/K38A): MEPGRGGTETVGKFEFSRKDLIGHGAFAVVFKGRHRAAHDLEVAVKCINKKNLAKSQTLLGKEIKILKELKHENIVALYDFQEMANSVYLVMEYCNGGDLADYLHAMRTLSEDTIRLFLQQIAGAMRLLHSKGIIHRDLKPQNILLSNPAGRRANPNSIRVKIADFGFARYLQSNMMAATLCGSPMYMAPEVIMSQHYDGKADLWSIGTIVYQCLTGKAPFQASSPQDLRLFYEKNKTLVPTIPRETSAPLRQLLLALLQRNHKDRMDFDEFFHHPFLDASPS
The assay can be described thus: Biochemical assay for ULK1 (coupled pyruvate kinase/lactate dehydrogenase assay). Particulars: 1 mM ATP, 0.1 nM ULK1; read-out: ULK1 (inhibition of biochemical activity), IC50. The method, then:
Biochemical Assay for ULK1 (SEQ. ID NO: 1)
Activity of ULK1 kinase was determined spectroscopically using a coupled pyruvate kinase/lactate dehydrogenase assay that continuously monitors the ATP hydrolysis-dependent oxidation of NADH (e.g., Schindler et al. Science (2000) 289: 1938-1942). Assays were conducted in 384-well plates (100 μL final volume) using 0.1 nM ULK1 (from Beryllium), 0.075 mM peptide substrate (YANWLAASIYLDGKKK), 1.5 units pyruvate kinase, 2.1 units lactate dehydrogenase, 1 mM phosphoenol pyruvate, 0.28 mM NADH and 1 mM ATP in assay buffer (100 mM Tris, pH 7.5, 15 mM MgCl2, 0.5 mM DTT, 0.004% (w/v) BSA, and 0.004% Triton X-100). Inhibition of ULK1 was measured by adding serial diluted test compound (final assay concentration of 1% DMSO). A decrease in absorption at 340 nm was monitored continuously for 6 h at 30° C. on a multi-mode microplate reader (BioTek). The reaction rate was calculated using the 2-3 h time frame. The reaction rate at each concentration of compound was converted to percent inhibition using controls (i.e., reaction with no test compound and reaction with a known inhibitor) and IC50 values were calculated using software routines in Prism (GraphPad software).

A further assay addresses T2, ULK2 kinase (Homo sapiens, UniProt Q8IYT8).
T2 construct: (residues 1-306 with N-terminal GST and His tag; ID NO: 2); purchased Signal Chem U02-11G
The assay can be described thus: Biochemical assay for ULK2 (coupled pyruvate kinase/lactate dehydrogenase assay). Particulars: 1 mM ATP, 1 nM ULK2; read-out: ULK2 (inhibition of biochemical activity), IC50. The procedure:
Biochemical Assay for ULK2 (SEQ. ID NO: 2)
Activity of ULK2 kinase was determined spectroscopically using a coupled pyruvate kinase/lactate dehydrogenase assay that continuously monitors the ATP hydrolysis-dependent oxidation of NADH (e.g., Schindler et al. Science (2000) 289: 1938-1942). Assays were conducted in 384-well plates (100 μL final volume) using 1 nM ULK2 (Signal Chem U02-11G), 200 μM ULKtide, 1.5 units pyruvate kinase, 2.1 units lactate dehydrogenase, 1 mM phosphoenol pyruvate, 0.28 mM NADH and 1 mM ATP in assay buffer (100 mM Tris, pH 7.5, 15 mM MgCl2, 0.5 mM DTT, 0.1% octyl-glucoside, 0.002% (w/v) BSA, and 0.002% Triton X-100). Inhibition of ULK2 was measured by adding serial diluted test compound (final assay concentration of 1% DMSO). A decrease in absorption at 340 nm was monitored continuously for 6 h at 30° C. on a multi-mode microplate reader (BioTek). The reaction rate was calculated using the 2-3 h time frame. The reaction rate at each concentration of compound was converted to percent inhibition using controls (i.e., reaction with no test compound and reaction with a known inhibitor) and IC50 values were calculated by fitting a four-parameter sigmoidal curve to the data using Prism (GraphPad software).

Molecules are shown by their SMILES. Bounds are passed on as bounds.

T2 sequence (Q8IYT8 with tags, fused parts or gaps): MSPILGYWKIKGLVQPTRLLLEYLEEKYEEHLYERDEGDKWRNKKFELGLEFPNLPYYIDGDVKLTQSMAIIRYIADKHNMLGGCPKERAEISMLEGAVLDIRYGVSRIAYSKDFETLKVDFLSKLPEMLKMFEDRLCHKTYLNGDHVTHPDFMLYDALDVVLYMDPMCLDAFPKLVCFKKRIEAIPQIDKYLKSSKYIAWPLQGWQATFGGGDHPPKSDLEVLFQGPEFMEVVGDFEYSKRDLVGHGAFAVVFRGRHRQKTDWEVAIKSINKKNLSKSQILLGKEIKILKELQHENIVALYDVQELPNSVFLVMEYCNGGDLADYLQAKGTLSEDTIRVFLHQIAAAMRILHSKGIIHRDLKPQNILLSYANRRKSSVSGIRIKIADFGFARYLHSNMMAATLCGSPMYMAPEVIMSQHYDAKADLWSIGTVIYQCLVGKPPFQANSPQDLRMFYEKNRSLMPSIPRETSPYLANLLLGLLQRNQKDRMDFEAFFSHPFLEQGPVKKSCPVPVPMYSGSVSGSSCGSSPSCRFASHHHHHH

For the compound `CC/C(Nc1ccc(N2CCN(C)CC2)cc1)=C1/C(=O)Nc2ccc(C(=O)NOC)cc21` [Example 10], the IC50 at ULK1 kinase was in the range of 100 to 500 nM.

Regarding `CC/C(Nc1cnn(C2CCN(C(C)C)CC2)c1)=C1/C(=O)Nc2ccc(C(=O)N3CCCO3)cc21` [Example 12], the IC50 at ULK1 kinase lay within 100 to 500 nM.

For `CC/C(Nc1cnn(C2CCN(C(C)C)CC2)c1)=C1/C(=O)Nc2ccc(C(=O)NC)cc21` [Example 13], the IC50 at ULK1 kinase was 100 to 500 nM. The same measure, in the same setting: for `CCNC(=O)c1ccc2c(c1)/C(=C(\CC)Nc1cnn(C3CCN(C(C)C)CC3)c1)C(=O)N2` [Example 14] the value was 100 to 500 nM. Take `CC/C(Nc1cnn(C2CCN(C(C)C)CC2)c1)=C1/C(=O)Nc2ccc(C(=O)NC(C)C)cc21` [Example 17]: the IC50 at ULK1 kinase was in the range of 10 to 100 nM; on ULK2 kinase, 100 to 500 nM. On to `CC/C(Nc1cnn(C2CCN(C(C)C)CC2)c1)=C1/C(=O)Nc2ccc(C(=O)NCC3COC3)cc21` [Example 18], for which, on ULK1 kinase, the IC50 lay within 10 to 100 nM. For `CC/C(Nc1cnn(C2CCN(C(C)C)CC2)c1)=C1/C(=O)Nc2ccc(C(=O)NC[C@@H]3CCCO3)cc21` [Example 19], the IC50 on ULK1 kinase and on ULK2 kinase was 10 to 100 nM throughout. As for `CC/C(Nc1cnn(C2CCN(C(C)C)CC2)c1)=C1/C(=O)Nc2ccc(C(=O)N3CCOCC3)cc21` [Example 20], at ULK1 kinase, the IC50 is over 500 nM. As to `CC/C(Nc1cnn(C2CCN(C(C)C)CC2)c1)=C1/C(=O)Nc2ccc(C(=O)NOC)cc21` [Example 22], the half-inhibitory concentration (IC50) at ULK1 kinase was 10 to 100 nM. Turning to `COCCNC(=O)c1ccc2c(c1)/C(=C(\C)Nc1cnn(C3CCN(C(C)C)CC3)c1)C(=O)N2` [Example 23], the IC50 on ULK1 kinase is 10 to 100 nM.

In the case of `CC/C(Nc1cnn(C2CCN(C(C)C)CC2)c1)=C1/C(=O)Nc2ccc(C(=O)NC3COC3)cc21` [Example 25], the IC50 at ULK1 kinase is 100 to 500 nM; at ULK2 kinase, over 500 nM. Turning to `C/C(Nc1cnn(C2CCN(C(C)C)CC2)c1)=C1/C(=O)Nc2ccc(C(=O)NC[C@H]3CCCO3)cc21` [Example 45], the IC50 on ULK1 kinase was at most 10 nM.

Regarding `CC/C(Nc1cnn(C2CCN(C(C)C)CC2)c1)=C1/C(=O)Nc2ccc(C(=O)NCCc3cnn(C)c3)cc21` [Example 49], the IC50 at ULK1 kinase lay in the range of 100 to 500 nM. On the same count and under the same terms, to `CC/C(Nc1cnn(C2CCN(C(C)C)CC2)c1)=C1/C(=O)Nc2ccc(C(=O)NCc3cnn(C)c3)cc21` [Example 50] belongs 100 to 500 nM.

Consider `CC/C(Nc1cnn(C2CCN(C(C)C)CC2)c1)=C1/C(=O)Nc2ccc(C(=O)NCC3(C)CCCO3)cc21` (stereo not shown) [Example 56], for which the results for the IC50 on ULK1 kinase and at ULK2 kinase were 10 to 100 nM and 100 to 500 nM, respectively.

Turning to `CC/C(Nc1cnn(C2CCN(C(C)C)CC2)c1)=C1/C(=O)Nc2ccc(C(=O)NCC(=O)N3CCCC3)cc21` [Example 57], the IC50 at ULK1 kinase fell in the range of 100 to 500 nM. The same measure, in the same setting: for `CC/C(Nc1cnn(C2CCN(C(C)C)CC2)c1)=C1/C(=O)Nc2ccc(C(=O)NCCC(=O)N(C)C)cc21` [Example 59] the value was 100 to 500 nM.

Take `CC/C(Nc1cnn(C2CCN(C(C)C)CC2)c1)=C1/C(=O)Nc2ccc(C(=O)N3CCCC3)cc21` [Example 81]: at ULK1 kinase, the IC50 was over 500 nM.

In the case of `CC/C(Nc1cnn(C2CNC2)c1)=C1/C(=O)Nc2ccc(C(=O)NC[C@H]3CCCO3)cc21` [Example 96], the IC50 was at most 10 nM on ULK1 kinase and 10 to 100 nM on ULK2 kinase. Taken in the same sequence, the figures for `CC/C(Nc1cc(C(C)C)ccn1)=C1/C(=O)Nc2ccc(C(=O)NCC(F)(F)F)cc21` [Example 97] were 100 to 500 nM and 10 to 100 nM.

`CC/C(Nc1ccn(C(C)C)n1)=C1/C(=O)Nc2ccc(C(=O)NCC(F)(F)F)cc21` [Example 99]: the results for the IC50 at ULK1 kinase and on ULK2 kinase were 100 to 500 nM and over 500 nM, respectively. Taken in the same sequence, the figures for `CC/C(Nc1cnn(C(C)C)n1)=C1/C(=O)Nc2ccc(C(=O)NCC(F)(F)F)cc21` [Example 110] were 10 to 100 nM and 100 to 500 nM. Taken in the same sequence, the figures for `CC/C(Nc1ccc(C(C)C)nc1)=C1/C(=O)Nc2ccc(C(=O)NCC(F)(F)F)cc21` [Example 111] were 100 to 500 nM and 100 to 500 nM.

Regarding `CC/C(Nc1cn(C)nc1C)=C1/C(=O)Nc2ccc(C(=O)NCC(F)(F)F)cc21` [Example 115], the IC50 on ULK1 kinase and on ULK2 kinase was over 500 nM each time.

With `CC/C(Nc1cnn(C(C)C)c1)=C1/C(=O)Nc2ccc(C(=O)N[C@@H](C)C(F)(F)F)cc21` [Example 120], the half-inhibitory concentration (IC50) on ULK1 kinase was 10 to 100 nM; at ULK2 kinase it was 100 to 500 nM. As to `CC/C(Nc1cnn2c1CCC2)=C1/C(=O)Nc2ccc(C(=O)NCC(F)(F)F)cc21` [Example 121], the 50% inhibitory concentration (IC50) at ULK1 kinase and on ULK2 kinase was over 500 nM each time. In the case of `CC/C(Nc1cnn(C(C)C)c1)=C1/C(=O)Nc2ccc(C(=O)N(C)C[C@H]3CCCO3)cc21` [Example 129], the IC50 fell in the range of 10 to 100 nM at ULK1 kinase and 100 to 500 nM at ULK2 kinase. Taken in the same sequence, the figures for `CC/C(Nc1cnn(C(C)C)c1)=C1/C(=O)Nc2ccc(C(=O)NC3CC3)cc21` [Example 131] were 100 to 500 nM and 100 to 500 nM. The matching figures for `CC/C(Nc1cnn(C(C)C)c1)=C1/C(=O)Nc2ccc(C(=O)NC(C)C)cc21` [Example 132]: 100 to 500 nM and over 500 nM. Taken in the same sequence, the figures for `CC/C(Nc1cnn(C(C)C)c1)=C1/C(=O)Nc2ccc(C(=O)NC)cc21` [Example 133] were 100 to 500 nM and over 500 nM. `CC/C(Nc1cnn(C2CCN(C(C)C)CC2)c1)=C1/C(=O)Nc2ccc(C(=O)N(C)OC)cc21` [Example 139]: on ULK1 kinase, the IC50 lay in the range of 100 to 500 nM. For `CC/C(Nc1cnn(C(C)C)c1)=C1/C(=O)Nc2cc(Cl)c(C(=O)NCC(F)(F)F)cc21` [Example 141], the IC50 on ULK1 kinase and at ULK2 kinase was 100 to 500 nM in each case. As for `CC/C(Nc1nc(C)co1)=C1/C(=O)Nc2ccc(C(=O)NCC(F)(F)F)cc21` [Example 143], the IC50 on ULK1 kinase is 100 to 500 nM; at ULK2 kinase, over 500 nM. `CC/C(Nc1nnc(C)o1)=C1/C(=O)Nc2ccc(C(=O)NCC(C)(C)F)cc21` [Example 146]: the IC50 at ULK1 kinase and at ULK2 kinase was 100 to 500 nM each time.

As to `CC/C(Nc1cnn(C(C)C)c1)=C1/C(=O)Nc2ccc(C(=O)N3CC[C@@H](C(F)(F)F)C3)cc21` [Example 150], the results for the IC50 at ULK1 kinase and on ULK2 kinase were 100 to 500 nM and over 500 nM, respectively. The matching figures for `CC/C(Nc1cnn(C(C)C)c1)=C1/C(=O)Nc2ccc(C(=O)N3CC[C@H](C(F)(F)F)C3)cc21` [Example 151]: 10 to 100 nM and 100 to 500 nM. Taken in the same sequence, the figures for `CC/C(Nc1ncc(C)o1)=C1/C(=O)Nc2ccc(C(=O)NCC(F)(F)F)cc21` [Example 155] were 10 to 100 nM and 100 to 500 nM. For `CC/C(Nc1cnn(C(C)C)c1)=C1/C(=O)Nc2ccc(C(=O)NCCN3CCC3)cc21` [Example 162], the half-inhibitory concentration (IC50) on ULK1 kinase and at ULK2 kinase was over 500 nM throughout.

Take `CC/C(Nc1cnn(C(C)C)c1)=C1/C(=O)Nc2ccc(C(=O)NCC3(OC)CC3)cc21` [Example 163]: the IC50 at ULK1 kinase was in the range of 10 to 100 nM; at ULK2 kinase, 100 to 500 nM.

With `CC/C(Nc1cnn(C(C)C)c1)=C1/C(=O)Nc2ccc(C(=O)NCCC(C)(C)F)cc21` [Example 164], the concentration for half-maximal inhibition (IC50) was at most 10 nM at ULK1 kinase and 10 to 100 nM at ULK2 kinase. For the compound `CC/C(Nc1cnn(C2CCC2)c1)=C1/C(=O)Nc2ccc(C(=O)NCC(C)(C)F)cc21` [Example 165], the concentration for half-maximal inhibition (IC50) on ULK1 kinase and on ULK2 kinase was at most 10 nM throughout. `CC/C(Nc1cnn(C(C)C)c1)=C1/C(=O)Nc2ccc(C(=O)NC(C)(C)CC(F)(F)F)cc21` [Example 167]: the IC50 at ULK1 kinase and at ULK2 kinase was 100 to 500 nM each time. On to `CC/C(Nc1cnn(C(C)C)c1)=C1/C(=O)Nc2ncc(C(=O)NCC(C)(C)F)cc21` [Example 170], for which the IC50 on ULK1 kinase and on ULK2 kinase was 100 to 500 nM each time. Regarding `CC/C(Nc1cnn(C(C)C)c1)=C1/C(=O)Nc2ncc(C(=O)NCC(F)(F)F)cc21` [Example 171], the IC50 at ULK1 kinase and at ULK2 kinase was 100 to 500 nM throughout.
